From patent US20090155387A1, “STABLE PHARMACEUTICAL COMPOSITION COMPRISING BETA-LACTAM ANTIBIOTIC AND ION-CHELATING AGENT” (priority 2006, published 2009)
Entries after “also recorded” stand apart in the source; their conditions may differ.

Assays:
[1] = Amounts of β-lactam antibiotic, β-lactamase inhibitor and aminoglycoside antibiotic in solution over time (reverse-phase LC/HPLC); assay type: physicochemical
Description: The amounts of β-lactam antibiotics and β-lactamase inhibitor were determined using C18 reverse-phase LC and UV-VIS detector (Tianjin […] Co., Ltd., analysis method No. HM-K-03). The content of aminoglycoside antibiotics was measured using reverse-phase HPLC and evaporation-light-scattering detector (ELSD detector) (Tianjin […] Co., Ltd., analysis method No. HM-K-08). The amount of antibiotic component at each time point was expressed as a percentage with respect to the amount at the initial time. The relative amount of each antibiotic component in the composition at each time point was expressed as peak area ratio with respect to the corresponding peak area of an external standard.

[2] = HIAC light obscuration test (USP 788), particle content of solution preparations; assay type: physicochemical; details: HIAC test results, composition in the form of a liquid solution
Description: Light obscuration testing was performed for solution preparations prepared with some of the compositions described in the examples according to the method described in the United States Pharmacopeia (USP 788) using HIAC-3000 light obscuration detector. Particle content is denoted by the number of particles per milliliter of solution. The value is an average of two measurements. Samples were tested at 1 hour and at 20 hours.

[3] = in Example 8 solution from freeze-dried powder stored 7 days at 0° C., redissolved in injectable water, 0 h
[4] = in Example 8 solution from freeze-dried powder stored 7 days at 0° C., redissolved in injectable water, 1 h
[5] = in Example 8 solution from freeze-dried powder stored 7 days at 0° C., redissolved in injectable water, 2 h
[6] = in Example 8 solution from freeze-dried powder stored 7 days at 0° C., redissolved in injectable water, 4 h
[7] = in Example 8 solution from freeze-dried powder stored 7 days at 0° C., redissolved in injectable water, 6 h
[8] = in Example 8 solution from freeze-dried powder stored 7 days at 0° C., redissolved in injectable water, 8 h
[9] = in Example 17 solution, pH 6.5, room temperature, 0 h
[10] = in Example 17 solution, pH 6.5, room temperature, 1 h
[11] = in Example 17 solution, pH 6.5, room temperature, 2 h
[12] = in Example 17 solution, pH 6.5, room temperature, 4 h
[13] = in Example 17 solution, pH 6.5, room temperature, 6 h
[14] = in Example 17 solution, pH 6.5, room temperature, 8 h
[15] = in Example 18 solution (2.5% fructose), pH 6.5, room temperature, 0 h
[16] = in Example 18 solution (2.5% fructose), pH 6.5, room temperature, 1 h
[17] = in Example 18 solution (2.5% fructose), pH 6.5, room temperature, 2 h

Molecule: CO/N=C(\C(=O)N[C@@H]1C(=O)N2C(C(=O)O)=C(CSc3nc(=O)c(=O)[nH]n3C)CS[C@H]12)c1csc(N)n1 [Ceftriaxone sodium]
- amount (percentage of initial amount) ([1]; in Example 7 solution, pH 6.75, room temperature, 0 h): 97.01%
- amount (percentage of initial amount) ([1]; in Example 7 solution, pH 6.75, room temperature, 1 h): 100.3%
- amount (percentage of initial amount) ([1]; in Example 7 solution, pH 6.75, room temperature, 2 h): 96.40%
- amount (percentage of initial amount) ([1]; in Example 7 solution, pH 6.75, room temperature, 4 h): 99.01%
- amount (percentage of initial amount) ([1]; in Example 7 solution, pH 6.75, room temperature, 6 h): 98.91%
- amount (percentage of initial amount) ([1]; in Example 7 solution, pH 6.75, room temperature, 8 h): 99.53%
- amount (percentage of initial amount) [1, 3]: 98.75%
- amount (percentage of initial amount) [1, 4]: 100.1%
- amount (percentage of initial amount) [1, 5]: 99.97%
- amount (percentage of initial amount) [1, 6]: 98.87%
- amount (percentage of initial amount) [1, 7]: 99.27%
- amount (percentage of initial amount) [1, 8]: 100.5%
- amount (percentage of initial amount) ([1]; in Example 9 solution from freeze-dried powder stored 7 days at 0° C., redissolved in injectable water, 0 h): 92.24%
- amount (percentage of initial amount) ([1]; in Example 9 solution from freeze-dried powder stored 7 days at 0° C., redissolved in injectable water, 1 h): 96.28%
- amount (percentage of initial amount) ([1]; in Example 9 solution from freeze-dried powder stored 7 days at 0° C., redissolved in injectable water, 2 h): 94.97%
- amount (percentage of initial amount) ([1]; in Example 9 solution from freeze-dried powder stored 7 days at 0° C., redissolved in injectable water, 4 h): 94.20%
- amount (percentage of initial amount) ([1]; in Example 9 solution from freeze-dried powder stored 7 days at 0° C., redissolved in injectable water, 6 h): 97.91%
- amount (percentage of initial amount) ([1]; in Example 9 solution from freeze-dried powder stored 7 days at 0° C., redissolved in injectable water, 8 h): 93.23%
- amount (percentage of initial amount) ([1]; in Example 24 solution, pH 6.75, room temperature, 0 h): 110.2%
- amount (percentage of initial amount) ([1]; in Example 24 solution, pH 6.75, room temperature, 1 h): 117.6%
- amount (percentage of initial amount) ([1]; in Example 24 solution, pH 6.75, room temperature, 2 h): 119.4%
- amount (percentage of initial amount) ([1]; in Example 24 solution, pH 6.75, room temperature, 4 h): 111.5%
- amount (percentage of initial amount) ([1]; in Example 24 solution, pH 6.75, room temperature, 6 h): 113.4%
- amount (percentage of initial amount) ([1]; in Example 24 solution, pH 6.75, room temperature, 8 h): 120.0%

Molecule: O=C(O)CN(CCN(CC(=O)O)CC(=O)O)CC(=O)O [EDTA, ethylenediamine tetraacetic acid]
- effect on aggregate particle formation in solution preparations [2]: can significantly reduce aggregate particle formation; also recorded: effective in inhibiting formation of aggregate particles

Molecule: CCN[C@@H]1C[C@H](N)[C@@H](O[C@H]2O[C@H](CN)CC[C@H]2N)[C@H](O)[C@H]1O[C@H]1OC[C@](C)(O)[C@H](NC)[C@H]1O [Etimicin]
- amount (percentage of initial amount) ([1]; in Example 6 solution, pH 6.5, room temperature, 0 h): 108.9%
- amount (percentage of initial amount) ([1]; in Example 6 solution, pH 6.5, room temperature, 1 h): 100.2%
- amount (percentage of initial amount) ([1]; in Example 6 solution, pH 6.5, room temperature, 2 h): 100.5%
- amount (percentage of initial amount) ([1]; in Example 6 solution, pH 6.5, room temperature, 4 h): 100.4%
- amount (percentage of initial amount) ([1]; in Example 6 solution, pH 6.5, room temperature, 6 h): 100.4%
- amount (percentage of initial amount) ([1]; in Example 6 solution, pH 6.5, room temperature, 8 h): 97.50%
- amount (percentage of initial amount) ([1]; in Example 13 solution (Example 12 solution + etimicin sulfate), 0 h): 100%
- amount (percentage of initial amount) ([1]; in Example 13 solution (Example 12 solution + etimicin sulfate), 1 h): 98.8%
- amount (percentage of initial amount) ([1]; in Example 13 solution (Example 12 solution + etimicin sulfate), 2 h): 97.5%
- amount (percentage of initial amount) ([1]; in Example 13 solution (Example 12 solution + etimicin sulfate), 4 h): 98.4%
- amount (percentage of initial amount) ([1]; in Example 13 solution (Example 12 solution + etimicin sulfate), 6 h): 95.6%
- amount (percentage of initial amount) ([1]; in Example 13 solution (Example 12 solution + etimicin sulfate), 8 h): 92.8%
- amount (percentage of initial amount) [1, 9]: 100.1%
- amount (percentage of initial amount) [1, 10]: 100.4%
- amount (percentage of initial amount) [1, 11]: 99.31%
- amount (percentage of initial amount) [1, 12]: 99.56%
- amount (percentage of initial amount) [1, 13]: 99.61%
- amount (percentage of initial amount) [1, 14]: 99.25%
- amount (percentage of initial amount) [1, 15]: 100.1%
- amount (percentage of initial amount) [1, 16]: 100.6%
- amount (percentage of initial amount) [1, 17]: 99.79%
- amount (percentage of initial amount) ([1]; in Example 23 solution (2.5% fructose), pH 6.75, room temperature, 0 h): 104.5%
- amount (percentage of initial amount) ([1]; in Example 23 solution (2.5% fructose), pH 6.75, room temperature, 1 h): 99.13%
- amount (percentage of initial amount) ([1]; in Example 23 solution (2.5% fructose), pH 6.75, room temperature, 2 h): 103.3%
- amount (percentage of initial amount) ([1]; in Example 23 solution (2.5% fructose), pH 6.75, room temperature, 4 h): 98.75%
- amount (percentage of initial amount) ([1]; in Example 23 solution (2.5% fructose), pH 6.75, room temperature, 6 h): 101.6%
- amount (percentage of initial amount) ([1]; in Example 23 solution (2.5% fructose), pH 6.75, room temperature, 8 h): 96.42%
- amount (percentage of initial amount) ([1]; in Example 26 solution (2.5% fructose), pH 6.75, room temperature, 0 h): 94.69%
- amount (percentage of initial amount) ([1]; in Example 26 solution (2.5% fructose), pH 6.75, room temperature, 1 h): 102.9%
- amount (percentage of initial amount) ([1]; in Example 26 solution (2.5% fructose), pH 6.75, room temperature, 2 h): 109.3%
- amount (percentage of initial amount) ([1]; in Example 26 solution (2.5% fructose), pH 6.75, room temperature, 4 h): 108.8%
- amount (percentage of initial amount) ([1]; in Example 26 solution (2.5% fructose), pH 6.75, room temperature, 6 h): 109.6%
- amount (percentage of initial amount) ([1]; in Example 26 solution (2.5% fructose), pH 6.75, room temperature, 8 h): 105.2%

Molecule: CC1(C)S[C@@H]2[C@H](NC(=O)[C@H](NC(=O)N3CCN(S(C)(=O)=O)C3=O)c3ccccc3)C(=O)N2[C@H]1C(=O)O [Mezlocillin sodium]
- amount (percentage of initial amount) ([1]; in Example 11 solution (pH 6.0) from freeze-dried powder stored 7 days at 0° C., redissolved, 0 h): 97.11%
- amount (percentage of initial amount) ([1]; in Example 11 solution (pH 6.0) from freeze-dried powder stored 7 days at 0° C., redissolved, 1 h): 90.83%
- amount (percentage of initial amount) ([1]; in Example 11 solution (pH 6.0) from freeze-dried powder stored 7 days at 0° C., redissolved, 2 h): 98.18%
- amount (percentage of initial amount) ([1]; in Example 11 solution (pH 6.0) from freeze-dried powder stored 7 days at 0° C., redissolved, 4 h): 93.69%
- amount (percentage of initial amount) ([1]; in Example 11 solution (pH 6.0) from freeze-dried powder stored 7 days at 0° C., redissolved, 6 h): 91.23%
- amount (percentage of initial amount) ([1]; in Example 11 solution (pH 6.0) from freeze-dried powder stored 7 days at 0° C., redissolved, 8 h): 94.39%
- amount (percentage of initial amount) [1, 9]: 116.6%
- amount (percentage of initial amount) [1, 10]: 94.83%
- amount (percentage of initial amount) [1, 11]: 91.86%
- amount (percentage of initial amount) [1, 12]: 91.96%
- amount (percentage of initial amount) [1, 13]: 91.52%
- amount (percentage of initial amount) [1, 14]: 98.56%
- amount (percentage of initial amount) [1, 15]: 96.48%
- amount (percentage of initial amount) [1, 16]: 95.90%
- amount (percentage of initial amount) [1, 17]: 71.70%
- amount (percentage of initial amount) ([1]; in Example 18 solution (2.5% fructose), pH 6.5, room temperature, 4 h): 91.78%
- amount (percentage of initial amount) ([1]; in Example 18 solution (2.5% fructose), pH 6.5, room temperature, 6 h): 93.08%
- amount (percentage of initial amount) ([1]; in Example 18 solution (2.5% fructose), pH 6.5, room temperature, 8 h): 97.69%

Molecule: C[C@]1(Cn2ccnn2)[C@H](C(=O)O)N2C(=O)C[C@H]2S1(=O)=O [Tazobactam sodium]
- amount (percentage of initial amount) [1, 3]: 102.2%
- amount (percentage of initial amount) [1, 4]: 97.53%
- amount (percentage of initial amount) [1, 5]: 94.16%
- amount (percentage of initial amount) [1, 6]: 94.58%
- amount (percentage of initial amount) [1, 7]: 95.45%
- amount (percentage of initial amount) [1, 8]: 94.44%
- amount (percentage of initial amount) ([1]; in Example 16 solution, pH 6.5, room temperature, 0 h): 98.77%
- amount (percentage of initial amount) ([1]; in Example 16 solution, pH 6.5, room temperature, 1 h): 108.2%
- amount (percentage of initial amount) ([1]; in Example 16 solution, pH 6.5, room temperature, 2 h): 110.8%
- amount (percentage of initial amount) ([1]; in Example 16 solution, pH 6.5, room temperature, 4 h): 97.39%
- amount (percentage of initial amount) ([1]; in Example 16 solution, pH 6.5, room temperature, 6 h): 106.3%
- amount (percentage of initial amount) ([1]; in Example 16 solution, pH 6.5, room temperature, 8 h): 106.3%
- amount (percentage of initial amount) ([1]; in Example 21 solution, pH 6.75, room temperature (22° C.), 0 h): 93.36%
- amount (percentage of initial amount) ([1]; in Example 21 solution, pH 6.75, room temperature (22° C.), 1 h): 104.8%
- amount (percentage of initial amount) ([1]; in Example 21 solution, pH 6.75, room temperature (22° C.), 2 h): 100.0%
- amount (percentage of initial amount) ([1]; in Example 21 solution, pH 6.75, room temperature (22° C.), 4 h): 96.58%
- amount (percentage of initial amount) ([1]; in Example 21 solution, pH 6.75, room temperature (22° C.), 6 h): 106.1%
- amount (percentage of initial amount) ([1]; in Example 21 solution, pH 6.75, room temperature (22° C.), 8 h): 107.1%

Molecule: Gentamicin
- amount (percentage of initial amount) ([1]; in Example 5 solution, pH 6.75, room temperature, 0 h): 101.7%
- amount (percentage of initial amount) ([1]; in Example 5 solution, pH 6.75, room temperature, 1 h): 104.2%
- amount (percentage of initial amount) ([1]; in Example 5 solution, pH 6.75, room temperature, 2 h): 96.1%
- amount (percentage of initial amount) ([1]; in Example 5 solution, pH 6.75, room temperature, 4 h): 100.1%
